# Where two headings read alike, the source gives them in different places.
# What was measured:
# allergic sheep [1] = test: Antigen-induced airway hyperresponsiveness (AHR), PD400 of carbachol, acute responder sheep; type: in vivo; settings: acute responders; for inhibition of AHR (PD400): 2 hours after antigen, FIG. 7
# Procedure: (§1) To assess the normal or baseline airway responsiveness of the sheep, cumulative dose response curves to inhaled carbochol were performed. The SRL of each sheep was measured before and after inhalation of a buffered saline solution and after each administration of 10 breaths of increasing concentrations of carbachol (0.25, 0.5, 1.0, 2.0 and 4.0% wt/vol solution). Airway responsiveness was defined by determination of the cumulative provocation dose (PD400) of carbachol (in breath units) that increased SRL to 400% above baseline. One breath unit was defined as one breath of 1% carbachol solution.
# (§2) The following experiments used inhaled D- or L-propranolol. AHR was estimated at 2 hours (acute) or 24 hours (dual) after antigen challenge as the provocating dose of carbachol which increased SRL by 400% (PD400). In acute responders, SRL increased by 219% with antigen challenge and PD400 decreased by 55%. Inhaled D-propranolol had no effect on baseline SRL, but inhibited ABR in a dose dependent manner.
# allergic sheep [2] = test: Antigen-induced bronchoconstriction (early and late phase SRL), dual responder sheep; type: in vivo; settings: dual responders
# From the text: Data was expressed as specific resistance, SRL.
# allergic sheep [3] = test: Antigen-induced airway hyperresponsiveness (AHR), PD400 of carbachol, dual responder sheep; type: in vivo; settings: dual responders
# Procedure: as §1, §2
# allergic sheep [4] = settings: for inhibition of ABR: FIG. 6
# Procedure: Five allergic sheep, with previously documented acute bronchoconstrictor response to Ascaris suum antigen, were used for all studies. The sheep were intubated with a cuffed nasotracheal tube and pulmonary airflow resistance (RL) was measured by the esophageal balloon catheter technique, while thoracic gas volume was measured by body plethysmography. Data was expressed as specific resistance, SRL. SRL is defined as RL times thoracic gas volume (Vtg).
# The normal reaction of the sheep to the antigen from Ascaris suum is measured. After full recovery and a two week rest period, the sheep again undergo repeat antigen challenge, but this time only after treatment with D-propranolol.
# The SRL of the acute responder sheep was measured prior to any treatment (baseline). The normal response of the sheep to antigen challenge by Ascaris suum antigen was measured (Open circles). […] One hour after D-propranolol was administered, the sheep were challenged with Ascaris suum antigen by inhalation. The SRL was measured immediately after antigen challenge (AG0).
# Specific lung resistance (SRL) was measured in 11 allergic sheep, of which six sheep were acute responders and five sheep were dual responders, before and serially after challenge with Ascaris suum antigen, without and after pretreatment with D- or L-propranolol. The propranolol was administered either in an inhaled dose or an oral dose.
# [5] = inhaled, FIG. 18 (legend: 10 mg/kg)
structure (smiles),measurement,setting,value
"CC(C)NC[C@H](O)COc1cccc2ccccc12 [L-propranolol, reference compound]",AHR response (PD400),"allergic sheep [1]; inhaled, 10 mg dose, FIG. 9",no difference between the post antigen and L-propranolol responses
same,effect on antigen-induced responses,allergic sheep [2]; [5],ineffective
same,peak early change in SRL,allergic sheep [2]; [5],351%
same,peak late SRL,allergic sheep [2]; [5],175%
same,effect on PD400,"allergic sheep [3]; inhaled, 24 hours after antigen, FIG. 19 (legend: 10 mg/kg)",had no effect
same,change in SRL after antigen challenge,"allergic sheep [4]; acute responders, inhaled, 10 mg dose, FIG. 8",209%
CC(C)NC[C@@H](O)COc1cccc2ccccc12 [D-propranolol],airway responsiveness (PD400) after antigen,"allergic sheep [1]; Example I, inhaled 10 mg in 4 mL PBS, P=NS, FIG. 4",maintained the airway responsiveness levels at the baseline
same,inhibition of AHR (PD400),"allergic sheep [1]; inhaled, 5 mg dose",30%
same,inhibition of AHR (PD400),"allergic sheep [1]; inhaled, 10 mg dose",50%
same,inhibition of AHR (PD400),"allergic sheep [1]; inhaled, 20 mg dose, P<0.05 vs post-antigen",75%
same,effect on AHR (change in PD400),"allergic sheep [1]; oral, 5 mg/kg, FIG. 11",effects
same,attenuation of early phase,"allergic sheep [2]; inhaled, 5 mg dose, FIG. 12",35%
same,attenuation of late phase,"allergic sheep [2]; inhaled, 5 mg dose, FIG. 12",21%
same,effect on ABR,"allergic sheep [2]; inhaled, 10 mg dose, FIG. 14",effected ABR
same,effect on early phase,"allergic sheep [2]; oral, 5 mg/kg, FIG. 16",significantly effected the early phase
same,effect on late phase response,"allergic sheep [2]; oral, 5 mg/kg, FIG. 16",may even remove the late phase response
same,inhibition of AHR (PD400),"allergic sheep [3]; inhaled, 5 mg dose, 24 hours after antigen, P<0.05, FIG. 13",44%
same,effect on AHR,"allergic sheep [3]; inhaled, 10 mg dose, FIG. 15",effected
same,effect on AHR,"allergic sheep [3]; oral, 5 mg/kg, FIG. 17",effected AHR
same,allergic bronchoconstriction after antigen challenge,"allergic sheep [4]; Example I, acute responders (n=5), aerosol 10 mg in 4 mL PBS one hour before antigen, FIG. 1",significant inhibition of allergic bronchoconstriction
same,percentage change in SRL after antigen stimulation vs control,"allergic sheep [4]; Example I, acute responders (n=5), aerosol 10 mg in 4 mL PBS, P<0.05, FIG. 2",significantly less change in SRL
same,inhibition of ABR,"allergic sheep [4]; acute responders, inhaled, 5 mg dose",37%
same,inhibition of ABR,"allergic sheep [4]; acute responders, inhaled, 10 mg dose, P<0.05",68%
same,inhibition of ABR,"allergic sheep [4]; acute responders, inhaled, 20 mg dose",44%
same,effect on ABR (change in SRL),"allergic sheep [4]; acute responders, oral, 5 mg/kg, FIG. 10",effects ABR
same,effect on baseline SRL,allergic sheep [4]; in vivo,had no effect

# From patent US20020013373A1, “Methods and compositions for treatment of asthma” (priority 1997, published 2002)
